Measurements reported in patent publication US11072585B2 (PharmAkea, Inc., priority 2015, dated 2021).
Where a name gives a salt, the structure may show the parent alone.

Molecular target: human LOXL2 (Homo sapiens (Human), UniProt Q9Y4K0)
Experiment: Human LOXL2 amine oxidase activity assay (Amplex Red)
Type: biochemical
Details: concentrated conditioned media from CHO cells stably expressing human LOXL2; 2 h at 37° C. with compound; DAP substrate
How it was run: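 Concentrated conditioned medium from CHO cells stably expressing human LOXL2 was preincubated with compound for 2 h at 37 °C in 50 mM borate, pH 8. 1,5-diaminopentane substrate and Amplex Red/HRP were then added. Fluorescence (544/590) was read kinetically every 2 min for 1 h, with activity taken from the linear slope.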

Chain of human LOXL2 (Q9Y4K0 26-774): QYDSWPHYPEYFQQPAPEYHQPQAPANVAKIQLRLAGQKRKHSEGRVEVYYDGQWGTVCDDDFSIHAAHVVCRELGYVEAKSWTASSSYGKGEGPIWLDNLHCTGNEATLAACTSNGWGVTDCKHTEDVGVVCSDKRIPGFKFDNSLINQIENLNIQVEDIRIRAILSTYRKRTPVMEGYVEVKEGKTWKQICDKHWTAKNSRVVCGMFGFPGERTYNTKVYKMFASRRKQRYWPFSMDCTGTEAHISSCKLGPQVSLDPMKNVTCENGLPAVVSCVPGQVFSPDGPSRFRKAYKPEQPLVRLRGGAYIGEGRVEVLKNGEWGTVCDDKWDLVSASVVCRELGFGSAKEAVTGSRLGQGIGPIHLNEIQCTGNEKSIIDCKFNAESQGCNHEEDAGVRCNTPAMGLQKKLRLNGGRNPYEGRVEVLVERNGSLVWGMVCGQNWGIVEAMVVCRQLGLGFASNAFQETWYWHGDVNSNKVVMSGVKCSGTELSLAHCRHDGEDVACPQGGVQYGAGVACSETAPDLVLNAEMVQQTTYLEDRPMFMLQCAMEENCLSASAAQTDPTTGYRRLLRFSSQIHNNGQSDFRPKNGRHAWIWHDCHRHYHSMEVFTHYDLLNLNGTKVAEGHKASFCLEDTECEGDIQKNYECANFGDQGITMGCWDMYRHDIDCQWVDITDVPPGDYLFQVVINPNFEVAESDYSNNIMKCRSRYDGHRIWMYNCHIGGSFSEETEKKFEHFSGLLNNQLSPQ

IC50 [nM] | Molecule
300 to 1000 | NCc1cc(Oc2cccc(C(=O)NO)c2)nc(C(F)(F)F)c1 [Compound 1-218, 3-((4-(Aminomethyl)-6-(trifluoromethyl)pyridin-2-yl)oxy)-N-hydroxybenzamide hydrochloride]
< 300 | NCc1cc(Oc2cccc(C(=O)N3CC[C@@H](CO)C3)c2)nc(C(F)(F)F)c1 [Compound 1-26, (R)-(3-((4-(Aminomethyl)-6-(trifluoromethyl)pyridin-2-yl)oxy)phenyl)(3-(hydroxymethyl)pyrrolidin-1-yl)methanone hydrochloride]
300 to 1000 | C#C[C@@H](CC(=O)O)NC(=O)c1cccc(Oc2cc(CN)cc(C(F)(F)F)n2)c1 [Compound 1-223, (R)-3-(3-((4-(aminomethyl)-6-(trifluoromethyl)pyridin-2-yl)oxy)benzamido)pent-4-ynoic acid hydrochloride]
300 to 1000 | NCc1cc(Oc2cc(C(=O)N3C[C@@H](O)[C@H](F)C3)ccc2O)nc(C(F)(F)F)c1 (racemic) [Compound 1-229, Racemic-trans-(3-((4-(aminomethyl)-6-(trifluoromethyl)pyridin-2-yl)oxy)-4-hydroxyphenyl)(3-fluoro-4-hydroxypyrrolidin-1-yl)methanone hydrochloride]
< 300 | NCc1cc(Oc2cccc(C(=O)N3CCC[C@H](CO)C3)c2)nc(C(F)(F)F)c1 [Compound 1-203, (S)-(3-((4-(Aminomethyl)-6-(trifluoromethyl)pyridin-2-yl)oxy)phenyl)(3-(hydroxymethyl)piperidin-1-yl)methanone hydrochloride]
< 300 | NCc1cc(O[C@@H]2CCN(C(=O)Nc3ccccc3)C2)nc(C(F)(F)F)c1 [Compound 1-39, (R)-3-((4-(Aminomethyl)-6-(trifluoromethyl)pyridin-2-yl)oxy)-N-phenylpyrrolidine-1-carboxamide trifluoroacetate]
300 to 1000 | NCc1cc(Oc2cccc3c2ccn3CC(=O)N2CCCCC2)nc(C(F)(F)F)c1 [Compound 1-56, 2-(4-((4-(Aminomethyl)-6-(trifluoromethyl)pyridin-2-yl)oxy)-1H-indol-1-yl)-1-(piperidin-1-yl)ethanone]
> 1000 | NCc1cc(Oc2cccc(C(=O)N3CCC[C@H]3C(=O)O)c2)nc(C(F)(F)F)c1 [Compound 1-24, (S)-1-(3-((4-(Aminomethyl)-6-(trifluoromethyl)pyridin-2-yl)oxy)benzoyl)pyrrolidine-2-carboxylic acid hydrochloride]
< 300 | NCc1cc(Oc2cccc(Oc3ccccc3)c2)nc(C(F)(F)F)c1 [Compound 1-3, (2-(3-Phenoxyphenoxy)-6-(trifluoromethyl)pyridin-4-yl)methanamine trifluoroacetate]
< 300 | NCc1cc(NC(=O)c2cccc(C(=O)N3CC[C@H](O)C3)c2)nc(C(F)(F)F)c1 [Compound 1-241, (S)—N-(4-(Aminomethyl)-6-(trifluoromethyl)pyridin-2-yl)-3-(3-hydroxypyrrolidine-1-carbonyl)benzamide trifluoroacetate]
< 300 | NCc1cc(Oc2cccc(C(=O)NC3COC3)c2)nc(C(F)(F)F)c1 [Compound 1-200, 3-((4-(Aminomethyl)-6-(trifluoromethyl)pyridin-2-yl)oxy)-N-(oxetan-3-yl)benzamide trifluoroacetate]
< 300 | NCc1cc(Oc2cccc(C(=O)N3CCC4(CC3)CNC(=O)O4)c2)nc(C(F)(F)F)c1 [Compound 1-27, 8-(3-((4-(Aminomethyl)-6-(trifluoromethyl)pyridin-2-yl)oxy)benzoyl)-1-oxa-3,8-diazaspiro[4.5]decan-2-one hydrochloride]
< 300 | NCc1cc(Oc2cccc(C(=O)N3CC[C@H](F)C3)c2)nc(C(F)(F)F)c1 [Compound 1-213, (S)-(3-((4-(Aminomethyl)-6-(trifluoromethyl)pyridin-2-yl)oxy)phenyl)(3-fluoropyrrolidin-1-yl)methanone hydrochloride]
< 300 | CS(=O)(=O)CCNC(=O)c1cncc(Oc2cc(CN)cc(C(F)(F)F)n2)c1 [Compound 1-53, 5-((4-(Aminomethyl)-6-(trifluoromethyl)pyridin-2-yl)oxy)-N-(2-(methylsulfonyl)ethyl)nicotinamide hydrochloride]
< 300 | NCc1cc(Oc2cccc(C(=O)Nc3ncco3)c2)nc(C(F)(F)F)c1 [Compound 1-227, 3-((4-(Aminomethyl)-6-(trifluoromethyl)pyridin-2-yl)oxy)-N-(oxazol-2-yl)benzamide hydrochloride]
< 300 | CN(C(=O)Cn1ccc2c(Oc3cc(CN)cc(C(F)(F)F)n3)cccc21)c1ccccc1 [Compound 1-38, 2-(4-((4-(Aminomethyl)-6-(trifluoromethyl)pyridin-2-yl)oxy)-1H-indol-1-yl)-N-methyl-N-phenylacetamide hydrochloride]
< 300 | N#CC1CN(C(=O)c2cccc(Oc3cc(CN)cc(C(F)(F)F)n3)c2)C1 [Compound 1-199, 1-(3-((4-(Aminomethyl)-6-(trifluoromethyl)pyridin-2-yl)oxy)benzoyl)azetidine-3-carbonitrile trifluoroacetate]
< 300 | C#CCCCCNC(=O)c1cccc(Oc2cc(CN)cc(C(F)(F)F)n2)c1 [Compound 1-216, 3-((4-(Aminomethyl)-6-(trifluoromethyl)pyridin-2-yl)oxy)-N-(hex-5-yn-1-yl)benzamide trifluoroacetate]
< 300 | NCc1cc(O[C@H]2CCCN(C(=O)Nc3ccccc3)C2)nc(C(F)(F)F)c1 [Compound 1-44, (S)-3-((4-(Aminomethyl)-6-(trifluoromethyl)pyridin-2-yl)oxy)-N-phenylpiperidine-1-carboxamide trifluoroacetate]
< 300 | NCc1cc(OCc2cccc(C(=O)N3C[C@@H](O)[C@H](F)C3)c2)nc(C(F)(F)F)c1 (racemic) [Compound 1-36, Racemic-trans-(3-(((4-(aminomethyl)-6-(trifluoromethyl)pyridin-2-yl)oxy)methyl)phenyl)(3-fluoro-4-hydroxypyrrolidin-1-yl)methanone hydrochloride]
< 300 | NCc1cc(Oc2cccc(C(=O)NC3(CO)CC3)c2)nc(C(F)(F)F)c1 [Compound 1-31, 3-((4-(Aminomethyl)-6-(trifluoromethyl)pyridin-2-yl)oxy)-N-(1-(hydroxymethyl)cyclopropyl)benzamide hydrochloride]
< 300 | CCc1ccc(NC(=O)c2cccc(Oc3cc(CN)cc(C(F)(F)F)n3)c2)cc1 [Compound 1-246, 3-((4-(Aminomethyl)-6-(trifluoromethyl)pyridin-2-yl)oxy)-N-(4-ethylphenyl)benzamide hydrochloride]
< 300 | NCc1cc(Oc2cncc(C(=O)N3C[C@@H](O)[C@H](F)C3)c2)nc(C(F)(F)F)c1 (racemic) [Compound 1-55, Racemic-trans-(5-((4-(aminomethyl)-6-(trifluoromethyl)pyridin-2-yl)oxy)pyridin-3-yl)(-3-fluoro-4-hydroxypyrrolidin-1-yl)methanone hydrochloride]

Molecule | IC50 [nM]
NCc1cc(Oc2cccc(C(=O)N3CC(n4cccn4)C3)c2)nc(C(F)(F)F)c1 [Compound 1-12, (3-(1H-Pyrazol-1-yl)azetidin-1-yl)(3-((4-(aminomethyl)-6-(trifluoromethyl)pyridin-2-yl)oxy)phenyl)methanone trifluoroacetate] | < 300
N′-(4-(Aminomethyl)-6-(trifluoromethyl)pyridin-2-yl)-N^3-phenylisophthalamide trifluoroacetate [Compound 1-240] | < 300
